Test results reported in publication PMC10150366, “Discovery of an In Vivo Chemical Probe for BCL6 Inhibition by Optimization of Tricyclic Quinolinones” (Journal of Medicinal Chemistry, 2023).

Legend:
[1] = target: kinase panel (468) (Homo sapiens, UniProt P00519, H396P); test: KINOMEscan scanMAX kinase panel (468); format: binding
[2] = target: kinase panel (468); test: KINOMEscan scanMAX kinase panel (468); format: binding; details: for Percent Control: 10000 nM
[3] = target: AVPR1A (Homo sapiens, UniProt P37288); test: SAFETYscan Calcium Flux AVPR1A Agonist; format: cell-based
AVPR1A, sequence (P37288 whole entry): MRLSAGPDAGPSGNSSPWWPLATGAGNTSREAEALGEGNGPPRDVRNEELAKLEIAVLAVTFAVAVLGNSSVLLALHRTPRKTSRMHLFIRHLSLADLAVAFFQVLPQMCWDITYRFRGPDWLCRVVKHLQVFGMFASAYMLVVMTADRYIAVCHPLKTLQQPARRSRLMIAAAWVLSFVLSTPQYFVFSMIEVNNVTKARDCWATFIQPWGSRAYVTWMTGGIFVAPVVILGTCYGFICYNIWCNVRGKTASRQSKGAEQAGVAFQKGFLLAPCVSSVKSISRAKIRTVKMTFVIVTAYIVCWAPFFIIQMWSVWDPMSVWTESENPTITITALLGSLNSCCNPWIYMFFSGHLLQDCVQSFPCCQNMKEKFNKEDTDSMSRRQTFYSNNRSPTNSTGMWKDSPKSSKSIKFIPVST
Excerpt: (§1) Supplement jm3c00155_si_002.xlsx, sheet "SAFETYScan" | column: RC50 (uM); Max Response

[4] = target: CHRM3 (Homo sapiens, UniProt P20309); test: SAFETYscan Calcium Flux CHRM3 Agonist; format: cell-based
CHRM3, sequence (P20309 whole entry): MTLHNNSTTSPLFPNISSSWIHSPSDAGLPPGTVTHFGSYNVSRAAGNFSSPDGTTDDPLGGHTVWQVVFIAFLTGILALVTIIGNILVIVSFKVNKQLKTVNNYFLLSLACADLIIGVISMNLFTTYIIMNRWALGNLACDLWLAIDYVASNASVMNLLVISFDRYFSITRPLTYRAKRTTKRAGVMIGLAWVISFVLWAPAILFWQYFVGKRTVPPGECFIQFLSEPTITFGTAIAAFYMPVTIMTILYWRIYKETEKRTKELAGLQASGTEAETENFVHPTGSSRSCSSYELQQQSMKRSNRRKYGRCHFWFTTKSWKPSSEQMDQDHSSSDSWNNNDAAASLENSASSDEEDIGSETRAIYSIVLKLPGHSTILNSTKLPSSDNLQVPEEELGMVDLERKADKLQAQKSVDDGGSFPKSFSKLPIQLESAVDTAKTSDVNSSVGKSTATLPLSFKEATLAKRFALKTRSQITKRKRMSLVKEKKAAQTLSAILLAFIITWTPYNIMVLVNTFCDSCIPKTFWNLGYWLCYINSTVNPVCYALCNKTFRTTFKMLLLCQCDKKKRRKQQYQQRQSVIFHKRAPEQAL
Excerpt: as §1

[5] = target: HTR2A (Homo sapiens, UniProt P28223); test: SAFETYscan Calcium Flux HTR2A Agonist; format: cell-based
HTR2A, sequence (P28223 whole entry): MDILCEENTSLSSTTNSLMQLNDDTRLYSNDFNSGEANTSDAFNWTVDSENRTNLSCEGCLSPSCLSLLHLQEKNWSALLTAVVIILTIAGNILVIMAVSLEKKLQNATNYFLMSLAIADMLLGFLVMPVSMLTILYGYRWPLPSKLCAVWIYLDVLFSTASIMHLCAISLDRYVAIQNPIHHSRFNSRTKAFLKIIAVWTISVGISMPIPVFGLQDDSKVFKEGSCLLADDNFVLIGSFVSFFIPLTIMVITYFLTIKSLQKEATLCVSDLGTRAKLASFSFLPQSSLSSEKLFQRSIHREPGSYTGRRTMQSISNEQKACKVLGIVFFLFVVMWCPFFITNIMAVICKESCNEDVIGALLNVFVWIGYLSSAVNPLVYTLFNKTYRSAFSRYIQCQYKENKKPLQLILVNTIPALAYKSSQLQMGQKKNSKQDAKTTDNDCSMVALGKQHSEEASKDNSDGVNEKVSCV
Excerpt: as §1

[6] = target: T1, EDNRA (Homo sapiens, UniProt P25101); test: SAFETYscan Calcium Flux EDNRA Antagonist; format: cell-based
T1 sequence (P25101 21-427): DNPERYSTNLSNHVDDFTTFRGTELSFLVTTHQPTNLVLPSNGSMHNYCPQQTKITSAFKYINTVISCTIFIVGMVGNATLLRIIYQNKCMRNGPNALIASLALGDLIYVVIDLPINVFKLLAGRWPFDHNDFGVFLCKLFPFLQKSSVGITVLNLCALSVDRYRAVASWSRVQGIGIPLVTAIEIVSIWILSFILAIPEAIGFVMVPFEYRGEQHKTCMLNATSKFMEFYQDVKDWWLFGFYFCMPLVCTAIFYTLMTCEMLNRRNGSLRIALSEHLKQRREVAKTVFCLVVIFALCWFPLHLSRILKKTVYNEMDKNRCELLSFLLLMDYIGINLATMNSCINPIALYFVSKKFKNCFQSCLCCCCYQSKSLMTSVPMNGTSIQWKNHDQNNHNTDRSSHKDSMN
Excerpt: as §1

[7] = target: ADRB2 (Homo sapiens, UniProt P07550); test: SAFETYscan cAMP ADRB2 Agonist; format: cell-based
ADRB2, sequence (P07550 whole entry): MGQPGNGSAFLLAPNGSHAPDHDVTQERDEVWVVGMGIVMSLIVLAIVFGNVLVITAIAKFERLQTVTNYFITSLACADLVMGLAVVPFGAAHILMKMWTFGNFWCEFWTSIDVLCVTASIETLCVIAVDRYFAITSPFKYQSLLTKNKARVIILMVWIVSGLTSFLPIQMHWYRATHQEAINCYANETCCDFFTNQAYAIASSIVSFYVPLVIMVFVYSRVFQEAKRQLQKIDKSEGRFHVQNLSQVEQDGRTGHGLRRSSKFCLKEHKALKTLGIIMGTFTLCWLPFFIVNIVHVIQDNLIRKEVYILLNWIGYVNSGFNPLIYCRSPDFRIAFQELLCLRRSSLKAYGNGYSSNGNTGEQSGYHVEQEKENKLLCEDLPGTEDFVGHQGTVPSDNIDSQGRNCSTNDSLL
Excerpt: as §1

[8] = target: T2, CHRM2 (Homo sapiens, UniProt P08172); test: SAFETYscan cAMP CHRM2 Agonist; format: cell-based
T2 sequence (P08172 1-466): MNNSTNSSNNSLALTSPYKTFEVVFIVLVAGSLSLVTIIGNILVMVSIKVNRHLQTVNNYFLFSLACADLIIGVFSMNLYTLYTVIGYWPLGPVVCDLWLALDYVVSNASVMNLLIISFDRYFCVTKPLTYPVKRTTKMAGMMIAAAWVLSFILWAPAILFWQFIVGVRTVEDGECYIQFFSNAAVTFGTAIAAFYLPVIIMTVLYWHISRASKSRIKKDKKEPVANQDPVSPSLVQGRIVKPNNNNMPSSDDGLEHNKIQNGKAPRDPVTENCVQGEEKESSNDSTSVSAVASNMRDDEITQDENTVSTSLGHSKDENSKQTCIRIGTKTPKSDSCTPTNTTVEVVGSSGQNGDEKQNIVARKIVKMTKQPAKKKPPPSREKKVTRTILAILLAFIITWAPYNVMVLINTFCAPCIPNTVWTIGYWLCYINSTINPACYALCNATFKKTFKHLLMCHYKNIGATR
Excerpt: (§2) Supplement jm3c00155_si_002.xlsx, sheet "SAFETYScan" | column: RC50 (uM); Hill; Max Response

[9] = target: DRD1 (Homo sapiens, UniProt P21728); test: SAFETYscan cAMP DRD1 Agonist; format: cell-based
DRD1, sequence (P21728 whole entry): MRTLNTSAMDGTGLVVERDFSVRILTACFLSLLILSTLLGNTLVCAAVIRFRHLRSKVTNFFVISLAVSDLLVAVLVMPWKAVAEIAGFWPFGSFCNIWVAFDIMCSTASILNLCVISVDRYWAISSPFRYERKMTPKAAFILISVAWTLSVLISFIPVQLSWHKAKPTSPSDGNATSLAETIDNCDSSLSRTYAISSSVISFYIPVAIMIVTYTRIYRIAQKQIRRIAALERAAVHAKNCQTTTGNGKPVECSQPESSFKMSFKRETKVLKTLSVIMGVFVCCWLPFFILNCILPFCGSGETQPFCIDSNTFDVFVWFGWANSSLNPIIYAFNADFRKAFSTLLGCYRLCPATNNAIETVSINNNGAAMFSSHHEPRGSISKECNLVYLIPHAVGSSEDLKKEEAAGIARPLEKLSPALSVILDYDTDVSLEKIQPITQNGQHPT
Excerpt: as §1

[10] = target: HRH2 (Homo sapiens, UniProt P25021); test: SAFETYscan cAMP HRH2 Agonist; format: cell-based
HRH2, sequence (P25021 whole entry): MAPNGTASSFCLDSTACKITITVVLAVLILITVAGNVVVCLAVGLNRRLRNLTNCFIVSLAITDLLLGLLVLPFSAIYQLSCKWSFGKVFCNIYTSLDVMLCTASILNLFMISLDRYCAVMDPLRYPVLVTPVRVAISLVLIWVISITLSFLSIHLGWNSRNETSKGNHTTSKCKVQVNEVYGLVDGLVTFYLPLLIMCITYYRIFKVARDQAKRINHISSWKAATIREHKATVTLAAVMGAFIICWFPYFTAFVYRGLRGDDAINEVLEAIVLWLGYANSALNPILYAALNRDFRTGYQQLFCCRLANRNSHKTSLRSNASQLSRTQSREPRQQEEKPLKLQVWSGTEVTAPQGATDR
Excerpt: as §1

[11] = target: T3, OPRM1 (Homo sapiens, UniProt P35372); test: SAFETYscan cAMP OPRM1 Agonist; format: cell-based
T3 sequence (P35372 whole entry): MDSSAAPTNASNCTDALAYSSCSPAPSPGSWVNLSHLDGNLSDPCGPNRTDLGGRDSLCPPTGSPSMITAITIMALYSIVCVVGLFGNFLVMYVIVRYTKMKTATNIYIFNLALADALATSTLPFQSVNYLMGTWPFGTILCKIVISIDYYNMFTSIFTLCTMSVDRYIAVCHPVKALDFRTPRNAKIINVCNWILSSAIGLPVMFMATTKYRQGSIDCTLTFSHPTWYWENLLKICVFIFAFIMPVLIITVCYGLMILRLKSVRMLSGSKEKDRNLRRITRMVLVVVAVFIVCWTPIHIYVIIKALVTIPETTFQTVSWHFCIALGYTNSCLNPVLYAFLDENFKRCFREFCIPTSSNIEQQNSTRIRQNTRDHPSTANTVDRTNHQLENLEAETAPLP
Excerpt: as §1

[12] = target: T3, OPRM1; test: SAFETYscan cAMP OPRM1 Antagonist; format: cell-based
Excerpt: as §2

[13] = target: T4, GR (Homo sapiens, UniProt P04150); test: SAFETYscan NHR Protein Interaction GR Agonist; format: cell-based
T4 sequence (P04150 1-777): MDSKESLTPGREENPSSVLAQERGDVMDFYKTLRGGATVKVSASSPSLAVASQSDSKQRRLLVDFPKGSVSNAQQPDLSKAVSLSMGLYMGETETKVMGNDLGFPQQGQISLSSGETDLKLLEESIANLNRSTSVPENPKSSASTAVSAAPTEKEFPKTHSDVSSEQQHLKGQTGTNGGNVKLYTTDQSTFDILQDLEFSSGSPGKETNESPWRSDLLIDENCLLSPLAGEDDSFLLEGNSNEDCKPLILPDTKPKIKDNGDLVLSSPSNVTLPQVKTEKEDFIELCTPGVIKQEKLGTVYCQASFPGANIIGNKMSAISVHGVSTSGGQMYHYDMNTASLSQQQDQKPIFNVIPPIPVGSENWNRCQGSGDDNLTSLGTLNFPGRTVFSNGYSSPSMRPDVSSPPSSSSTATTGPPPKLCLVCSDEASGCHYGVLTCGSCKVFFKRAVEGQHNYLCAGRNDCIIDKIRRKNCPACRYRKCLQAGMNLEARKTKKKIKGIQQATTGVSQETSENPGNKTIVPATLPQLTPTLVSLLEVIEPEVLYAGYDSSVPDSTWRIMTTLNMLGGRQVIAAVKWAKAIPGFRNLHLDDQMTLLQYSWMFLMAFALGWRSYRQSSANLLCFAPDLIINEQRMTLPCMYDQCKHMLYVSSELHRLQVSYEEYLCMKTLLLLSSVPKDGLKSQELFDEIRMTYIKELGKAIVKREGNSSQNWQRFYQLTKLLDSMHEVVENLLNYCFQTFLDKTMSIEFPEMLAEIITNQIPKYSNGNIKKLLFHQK
Excerpt: as §1

[14] = target: COX2 (Homo sapiens, UniProt P35354); test: SAFETYscan Enzymatic COX2 Inhibitor; format: biochemical
COX2, sequence (P35354 18-604): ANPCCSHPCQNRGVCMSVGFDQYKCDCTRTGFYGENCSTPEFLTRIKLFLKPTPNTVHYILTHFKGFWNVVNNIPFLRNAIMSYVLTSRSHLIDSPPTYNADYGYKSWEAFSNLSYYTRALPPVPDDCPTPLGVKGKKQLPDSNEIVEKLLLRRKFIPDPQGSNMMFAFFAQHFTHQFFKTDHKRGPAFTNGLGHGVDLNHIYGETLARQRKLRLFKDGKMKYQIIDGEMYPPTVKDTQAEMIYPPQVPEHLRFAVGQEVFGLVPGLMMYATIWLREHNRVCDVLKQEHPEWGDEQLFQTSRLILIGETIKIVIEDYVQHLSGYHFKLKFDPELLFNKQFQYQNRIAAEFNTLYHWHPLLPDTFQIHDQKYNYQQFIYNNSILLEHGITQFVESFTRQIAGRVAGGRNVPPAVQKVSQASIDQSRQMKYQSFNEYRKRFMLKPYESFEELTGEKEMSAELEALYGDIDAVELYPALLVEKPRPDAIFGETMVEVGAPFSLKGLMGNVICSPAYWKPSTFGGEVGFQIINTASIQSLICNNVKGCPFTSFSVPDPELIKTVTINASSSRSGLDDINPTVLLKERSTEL
Excerpt: as §1

[15] = target: DAT (Homo sapiens, UniProt Q01959); test: SAFETYscan Transporter DAT Blocker; format: cell-based
DAT, sequence (Q01959 whole entry, species assumed): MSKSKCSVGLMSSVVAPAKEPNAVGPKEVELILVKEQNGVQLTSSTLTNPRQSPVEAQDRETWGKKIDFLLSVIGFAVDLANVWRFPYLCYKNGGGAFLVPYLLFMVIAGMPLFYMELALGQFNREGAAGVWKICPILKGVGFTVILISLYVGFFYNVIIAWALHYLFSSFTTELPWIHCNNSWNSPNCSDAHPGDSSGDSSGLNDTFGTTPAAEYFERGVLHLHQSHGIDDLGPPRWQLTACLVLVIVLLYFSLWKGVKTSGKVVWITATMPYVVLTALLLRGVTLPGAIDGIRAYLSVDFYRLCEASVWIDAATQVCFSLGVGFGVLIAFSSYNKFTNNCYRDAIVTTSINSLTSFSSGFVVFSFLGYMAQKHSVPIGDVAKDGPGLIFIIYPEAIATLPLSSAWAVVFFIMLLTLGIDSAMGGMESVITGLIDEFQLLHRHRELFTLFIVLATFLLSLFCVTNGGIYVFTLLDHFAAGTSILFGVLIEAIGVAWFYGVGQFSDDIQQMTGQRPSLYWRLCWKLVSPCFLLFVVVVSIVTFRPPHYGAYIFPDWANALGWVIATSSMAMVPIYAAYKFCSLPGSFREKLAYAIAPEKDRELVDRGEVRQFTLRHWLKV
Excerpt: as §1

With `Cn1c(=O)c2c(c3cc(Nc4ccnc(F)c4Cl)ccc31)N[C@@H](C1CC1)C(F)(F)CO2` [compound 17, (S)-10-((3-chloro-2-fluoropyridin-4-yl)amino)-2-cyclopropyl-3,3-difluoro-7-methyl-1,2,3,4-tetrahydro-[1,4]oxazepino[2,3-c]quinolin-6(7H)-one] the “Percent Control” value [1] was 84%, the “kinase panel (468) outcome” value [2] was “selective activity and minimal off-target interactions” and the “Percent Control” value ([2]; EGFR(L747-E749del, A750P)) was 93%. For the same compound, the “Percent Control” value ([2]; EGFR(L747-S752del, P753S)) was 67%, the “Percent Control” value ([2]; EGFR(L747-T751del,Sins)) was 100% and the “Percent Control” value ([2]; FLT3(ITD)) was 98%. The “Percent Control” value ([2]; FLT3(ITD,D835V)) was 100%, the “Percent Control” value ([2]; FLT3(ITD,F691L)) was 100% and the Emax ([3]; read-out: Max Response) was 0%. The EC50 ([3]; read-out: RC50 (EC50)) was > 10 µM, the EC50 [4] was > 10 µM and the Emax ([4]; CHRM3, Calcium Flux, Agonist, read-out: Max Response) was 0%. The EC50 [5] was > 10 µM, the Emax ([5]; HTR2A, Calcium Flux, Agonist, read-out: Max Response) was 2.33% and the Emax ([6]; read-out: Max Response) was 0%. For the same compound, the IC50 ([6]; read-out: RC50 (IC50)) was > 10 µM, the Emax ([7]; read-out: Max Response) was 0% and the EC50 ([7]; read-out: RC50 (EC50)) was > 10 µM. The EC50 [8] was 2.22 µM, the Hill ([8]; CHRM2, cAMP, Agonist) was 1.63 and the Emax ([8]; CHRM2, cAMP, Agonist, read-out: Max Response) was 92.6%. For the same compound, the EC50 [9] was > 10 µM, the Emax ([9]; DRD1, cAMP, Agonist, read-out: Max Response) was 0% and the Emax ([10]; read-out: Max Response) was 0%. For the same compound, the EC50 ([10]; read-out: RC50 (EC50)) was > 10 µM, the EC50 [11] was > 10 µM and the Emax ([11]; OPRM1, cAMP, Agonist, read-out: Max Response) was 13.3%. For the same compound, the IC50 [12] was 4.36 µM, the Hill ([12]; OPRM1, cAMP, Antagonist) was 0.72 and the Emax ([12]; OPRM1, cAMP, Antagonist, read-out: Max Response) was 56.3%. For the same compound, the Emax ([13]; read-out: Max Response) was 0%, the EC50 ([13]; read-out: RC50 (EC50)) was > 10 µM and the Emax ([14]; read-out: Max Response) was 0%. For the same compound, the IC50 ([14]; read-out: RC50 (IC50)) was > 10 µM, the IC50 [15] was > 10 µM and the Emax ([15]; DAT, Transporter, Blocker, read-out: Max Response) was 0%.
